# Laboratory results: patent publication US20220146526A1, “METHOD FOR EVALUATING SAMPLE, ANALYSIS METHOD, METHOD FOR DETECTING DEGRADED SAMPLE, MARKER FOR DETECTING DEGRADED BLOOD PLASMA SAMPLE, AND MARKER FOR DETECTING DEGRADED SERUM SAMPLE” (SHIMADZU CORPORATION, priority 2019, published 2022)
# Columns and labels:
# Format in all cases: physicochemical, human
# [1] = LC/MS of blood plasma sample: time from blood collection to centrifugation (Table D); details: for Rate of increase or decrease: detection intensity relative to 1 at 15 minutes; for Rate of increase or decrease / Increase or decrease: blood collection to centrifugation; for Increase or decrease: detection intensity
# Outline: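 Detection intensities are expressed relative to samples centrifuged 15 min after collection (=1), measured by electrospray LC/MS in MRM mode (Discovery HS F5-3, 40 °C, formic acid water/acetonitrile gradient at 0.25 mL/min). EDTA blood from a healthy donor was held at 4 °C, centrifuged at 4 °C, 3000 rpm, 15 min, and plasma frozen.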
# [2] = LC/MS of blood plasma sample: time from blood collection to cooling of blood (Table E); parameters: key to Rate of increase or decrease / Rate of increase or decrease (first value, increase): detection intensity relative to ≤1 min to cooling = 1; details: for Rate of increase or decrease: detection intensity relative to 1 at 1 minute or less, blood collection to cooling 5 minutes; for Increase or decrease: detection intensity, blood collection to cooling 5 minutes or more vs 1 minute or less; for Rate of increase or decrease (second value, decrease) / Rate of increase or decrease (first value, increase): different from individual to individual, relative to 1 at 1 minute or less, collection to cooling 5 minutes; for Rate of increase or decrease (second value, decrease): individuals with decrease; for Rate of increase or decrease (first value, increase): individuals with increase
# Description: At room temperature, 5 mL of blood from a healthy subject was taken into a blood-collecting vessel containing EDTA, and the blood-collecting vessel was inverted for mixing, then cooled, and allowed to stand at 4° C. Here, in order to investigate how the detection intensity of molecules contained in the sample was affected in a case where the time to cooling was set to 5 minutes or more as compared to that in a case where the time to cooling was set to 1 minute or less, preparations were performed under both the former condition and the latter condition. After standing, the blood sample was subjected to centrifugation under a condition of 4° C., 3000 rpm, and 15 minutes. […] After centrifugation, the blood-collecting vessel was left to stand at room temperature for 30 minutes, and the blood plasma was isolated during this 30 minutes. The obtained blood plasma sample was frozen and stored. Here, in order to investigate how the detection intensity of molecules contained in the sample was affected in cases where freezing and thawing was performed 4 times, 6 times, and 10 times after freezing as compared to that in a case where freezing and thawing was performed 2 times after freezing, freezing and thawing was performed under the respective conditions of 2, 4, 6, and 10 times.
# (§1) Frozen blood plasma samples and serum samples were subjected to GC/MS or LC/MS. In GC/MS, the blood plasma samples and serum samples were subjected to methoxymation and trimethylsilylation and then introduced to GC-MS.
# (§2) Analysis column: Discovery HS F5-3 (inner diameter of 2.1 mm, length of 150 mm, film thickness of 3 μm) (Sigma-Aldrich)
# (§3) Column temperature: 40° C.
# (§4) (A) 0.1% formic acid (dissolved in water)
# (§5) (B) 0.1% formic acid (dissolved in acetonitrile)
# (§6) Flow velocity: 0.25 mL/min
# (§7) Ionization method: electrospray
# (§8) Temperature: • Desolvation Line (DL) temperature: 250° C. • Heat block temperature: 400° C. • Interface temperature: 300° C.
# (§9) Gas flow rate: • Nebulizer gas flow rate: 3.0 L/min • Drying gas flow rate: 10.0 L/min • Heating gas flow rate: 10.0 L/min
# (§10) Mode: multiple reaction monitoring (MRM)
# The rate of increase or decrease in Table E is the value of detection intensity relative to 1 that is the detection intensity in a case where the time from blood collection to cooling is set to 1 minute or less.
# [3] = LC/MS of blood plasma sample: number of times of freezing and thawing (Table F); details: for Rate of increase or decrease: detection intensity relative to 1 at 2 times; for Increase or decrease: detection intensity
# Outline: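 Values are detection intensities normalised to 1 for plasma thawed twice, compared against 4, 6 and 10 freeze-thaw cycles. Measured by electrospray LC/MS in MRM mode, formic acid water/acetonitrile mobile phase, column at 40° C. Plasma came from EDTA blood, cooled to 4° C and spun at 3000 rpm for 15 min.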
# [4] = LC/MS of serum sample: time from blood collection to centrifugation (Table J); details: for Rate of increase or decrease: after 4 hours from blood collection to centrifugation, detection intensity relative to 1 at 15 minutes; for Increase or decrease / Time when compound is affected: serum sample, LC/MS; for Increase or decrease: detection intensity vs 15 minutes from blood collection to centrifugation; for Time when compound is affected: time from blood collection to centrifugation, detection intensity changed by 30% or more vs 15 minutes
# Outline: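 Detection intensities are expressed relative to 1 for samples centrifuged 15 min after blood collection; centrifugation was at room temperature, 3500 rpm, 5 min. Frozen serum was run by electrospray LC-MS in MRM mode, with 0.1% formic acid water/acetonitrile at 0.25 mL/min on a 40 °C F5 column.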
# [5] = LC/MS of serum sample: number of times of freezing and thawing (Table M); parameters: key to Rate of increase or decrease: detection intensity relative to 1 at 2 freeze-thaw cycles; details: for Number of times when compound is affected / Increase or decrease: serum sample, LC/MS; for Number of times when compound is affected: detection intensity changed by 30% or more vs 2 times of freezing and thawing; for Increase or decrease: detection intensity vs 2 times of freezing and thawing
# Outline: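 Values are detection intensities relative to serum thawed twice, versus 4, 6 or 10 freeze-thaw cycles. Serum came from blood spun at room temperature, 3500 rpm for 5 minutes. Analysis: electrospray LC/MS in MRM mode, Discovery HS F5-3 column, 40° C, 0.1% formic acid in water and acetonitrile.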
# [6] = LC/MS of serum sample: time from centrifugation to isolation (Table K); parameters: key to Rate of increase or decrease: detection intensity relative to the 30-minute value set as 1; details: for Rate of increase or decrease: detection intensity relative to 1 at 30 minutes; for Increase or decrease / Time when compound is affected: serum sample, LC/MS; for Increase or decrease: detection intensity vs 30 minutes from centrifugation to isolation; for Time when compound is affected: time from centrifugation to isolation, detection intensity changed by 30% or more vs 30 minutes
# Description: After standing, the blood sample was subjected to centrifugation under a condition of room temperature, 3500 rpm, and 5 minutes. […] After centrifugation, the blood-collecting vessel was left to stand at room temperature, and the serum was isolated during this time. Here, in order to investigate how the detection intensity of molecules contained in the sample was affected in cases where the time during which the blood-collecting vessel was left at room temperature was set to 1 hour and 6 hours as compared to that in a case where the time was set to 30 minutes, preparations were performed under the respective conditions of 30 minutes, 1 hour, and 6 hours. The obtained serum sample was frozen and stored. Here, in order to investigate how the detection intensity of molecules contained in the sample was affected in cases where freezing and thawing was performed 4 times, 6 times, and 10 times after freezing as compared to that in a case where freezing and thawing was performed 2 times after freezing, freezing and thawing was performed under the respective conditions of 2, 4, 6, and 10 times.
# as §1, §2, §3, §4, §5, §6, §7, §8, §9, §10
# The rate of increase or decrease in Table K is the value of detection intensity relative to 1 that is the detection intensity in a case where the time from centrifugation to isolation is set to 30 minutes.
# [7] = GC/MS of blood plasma sample: time from blood collection to centrifugation (Table A); details: blood collection to centrifugation
# Outline: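 Read-out is MRM detection intensity by electron-ionization GC/MS on a BPX5 column after methoxymation and trimethylsilylation, expressed relative to a 15-minute collection-to-centrifugation interval. Plasma was prepared from EDTA blood held at 4° C and spun at 4° C, 3000 rpm for 15 minutes, then frozen.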
# [8] = GC/MS of blood plasma sample: number of times of freezing and thawing (Table C)
# Outline: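 Values express detection intensity as a ratio to the 2-cycle freeze-thaw sample (=1), compared with 4, 6 and 10 cycles. Healthy-donor EDTA plasma, cooled at ≤1 min or ≥5 min, spun at 4 °C, 3000 rpm, 15 min. Derivatised by methoxymation/trimethylsilylation; GC-MS/MS in MRM mode with electron ionization.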
# [9] = freezing and thawing 4 times vs 2 times
# [10] = 6 times of freezing and thawing, relative to 1 at 2 times, different from individual to individual, first value (increase)
# [11] = 6 times of freezing and thawing, relative to 1 at 2 times, different from individual to individual, second value (decrease)
# [12] = after 1 hour from centrifugation to isolation
# [13] = 4 times of freezing and thawing, detection intensity relative to 1 at 2 times
# [14] = freezing and thawing 6 times vs 2 times
# [15] = 6 times of freezing and thawing, detection intensity relative to 1 at 2 times
# [16] = freezing and thawing 10 times vs 2 times
Compound,Rate of increase or decrease ([1]; after 4 hours),Increase or decrease ([1]; after 4 hours vs 15 minutes),Rate of increase or decrease [2],Increase or decrease [2],Rate of increase or decrease ([3]; freezing and thawing 4 times),"Increase or decrease [3, 9]",Increase or decrease [4],Time when compound is affected [4],Number of times when compound is affected [5] [times],Increase or decrease [5],Increase or decrease [6],Time when compound is affected [6],also measured
N[C@@H](Cc1ccc(O)c(O)c1)C(=O)O [Dopa],2.57,Increase,2.30,Increase,0.95,Decrease,Decrease,After 4 hours,6,Different from individual,–,–,"Rate of increase or decrease [4]: 0.56; Rate of increase or decrease [5, 10]: 1.30; Rate of increase or decrease [5, 11]: 0.31"
Nc1ncnc2c1ncn2[C@@H]1O[C@H](COP(=O)(O)O)[C@@H](O)[C@H]1O [Adenosine monophosphate],1.56,Increase,–,Different from individual,1.50,Increase,–,–,4,Decrease,Decrease,After 1 hour hours,"Rate of increase or decrease (second value, decrease) [2]: 0.62; Rate of increase or decrease (first value, increase) [2]: 1.43; Rate of increase or decrease [6, 12]: 0.13; Rate of increase or decrease [5, 13]: 0.23"
NC(=O)c1cccnc1 [Nicotinamide],1.44,Increase,1.40,Increase,–,–,Increase,After 4 hours,6,Decrease,–,–,"Increase or decrease [3, 14]: Increase; Rate of increase or decrease [4]: 2.16; Rate of increase or decrease [5, 15]: 0.69"
C[C@H](CCC(=O)O)[C@H]1CC[C@H]2[C@@H]3[C@H](O)C[C@@H]4C[C@H](O)CC[C@]4(C)[C@H]3C[C@H](O)[C@]12C [Cholic acid],–,–,1.36,Increase,–,–,–,–,6,Decrease,–,–,"Rate of increase or decrease ([1]; after 12 hours): 1.99; Increase or decrease ([1]; after 12 hours vs 15 minutes): Increase; Rate of increase or decrease ([3]; freezing and thawing 10 times): 3.26; Increase or decrease [3, 16]: Increase; Rate of increase or decrease [5, 15]: 0.57"
Nc1ncnc2nc[nH]c12 [Adenine],–,–,1.31,Increase,1.37,Increase,–,–,4,Decrease,Decrease,After 1 hour hours,"Rate of increase or decrease ([1]; after 6 hours): 0.63; Increase or decrease ([1]; after 6 hours vs 15 minutes): Decrease; Rate of increase or decrease [6, 12]: 0.39; Rate of increase or decrease [5, 13]: 0.57"
CN(C)CC(=O)O [Dimethylglycine],–,–,0.66,Decrease,–,–,–,–,6,Different from individual,–,–,"Rate of increase or decrease ([7]; detection intensity relative to 1 at 15 minutes, after 12 hours): 1.41; Increase or decrease ([7]; detection intensity, after 12 hours vs 15 minutes): Increase; Rate of increase or decrease ([8]; detection intensity relative to 1 at 2 times, freezing and thawing 10 times): 1.34; Increase or decrease ([8]; detection intensity, freezing and thawing 10 times vs 2 times): Increase; Increase or decrease ([1]; after 12 hours vs 15 minutes): Different from individual; Rate of increase or decrease (second value, decrease) ([1]; different from individual to individual, individuals with decrease, relative to 1 at 15 minutes, collection to centrifugation, after 12 hours): 0.63; Rate of increase or decrease (first value, increase) ([1]; different from individual to individual, individuals with increase, relative to 1 at 15 minutes, collection to centrifugation, after 12 hours): 1.57; Rate of increase or decrease ([3]; freezing and thawing 10 times): 1.37; Increase or decrease [3, 16]: Increase; Rate of increase or decrease [5, 10]: 1.34; Rate of increase or decrease [5, 11]: 0.61"
O=C(O)[C@@H]1CCCN1 [Proline],2.20,Increase,1.41,Increase,–,–,Increase,After 12 hours,10,Decrease,Increase,After 6 hours,"Rate of increase or decrease ([6]; after 6 hours from centrifugation to isolation): 2.35; Rate of increase or decrease ([5]; 10 times of freezing and thawing, detection intensity relative to 1 at 2 times): 0.59"
Nc1nc2c(ncn2[C@@H]2O[C@H](COP(=O)(O)O)[C@@H](O)[C@H]2O)c(=O)[nH]1 [Guanosine monophosphate],1.89,Increase,–,Different from individual,–,–,–,–,–,–,–,–,"Rate of increase or decrease (second value, decrease) [2]: 0.59; Rate of increase or decrease (first value, increase) [2]: 1.47; Rate of increase or decrease ([3]; freezing and thawing 6 times): 1.95; Increase or decrease [3, 14]: Increase"
